Reference: the kinase profiling compilation of Christmann-Franck et al. (2016)

Tests used:
Assay in all cases: radiometric filter-binding kinase assay
MAPK3 (human) = MAPK3 (human) (UniProt P27361)
MAP3K7 TAB1 (human) = MAP3K7 TAB1 (human) (UniProt Q15750+O43318)
NTRK1 (human) = NTRK1 (human) (UniProt P04629); conditions: compound 10.0 µM
[1] = system: SGK1 (human), O00141 [S422D]; conditions: compound 1.0 µM
MAPKAPK3 (human) = MAPKAPK3 (human) (UniProt Q16644)
RPS6KA3 KD1 KD2 (human) = RPS6KA3 KD1 KD2 (human) (UniProt P51812)
STK3 (human) = STK3 (human) (UniProt Q13188)
PLK1 (human) = PLK1 (human) (UniProt P53350)
MAPK8 (human) = MAPK8 (human) (UniProt P45983)
MKNK2 (human) = MKNK2 (human) (UniProt Q9HBH9)
ROCK2 (rat) = conditions: accession and sequence are those of the human protein
BRSK2 (human) = BRSK2 (human) (UniProt Q8IWQ3)
DYRK3 (human) = DYRK3 (human) (UniProt O43781)
PAK4 (human) = PAK4 (human) (UniProt O96013)
IKBKB (human) = IKBKB (human) (UniProt O14920)
MAPK11 (human) = MAPK11 (human) (UniProt Q15759)
MAPK14 (human) = MAPK14 (human) (UniProt Q16539)
[2] = system: RPS6KB1 (human), P23443 [T412E]
TBK1 (human) = TBK1 (human) (UniProt Q9UHD2)
MAPK12 (human) = MAPK12 (human) (UniProt P53778)
RPS6KA1 KD1 KD2 (human) = RPS6KA1 KD1 KD2 (human) (UniProt Q15418)
[3] = system: AKT1 (human), P31749 [S473D]
IKBKE (human) = IKBKE (human) (UniProt Q14164)
MAPKAPK5 (human) = MAPKAPK5 (human) (UniProt Q8IW41)
IRAK4 (human) = IRAK4 (human) (UniProt Q9NWZ3)
CSNK2A1 (human) = CSNK2A1 (human) (UniProt P68400)
CLK2 (human) = CLK2 (human) (UniProt P49760)
DAPK1 (human) = DAPK1 (human) (UniProt P53355)
MAP2K6 (human) = MAP2K6 (human) (UniProt P52564)
MAP3K11 (human) = MAP3K11 (human) (UniProt Q16584)
PIM2 (human) = PIM2 (human) (UniProt Q9P1W9); conditions: compound 1.0 µM
EPHB3 (human) = EPHB3 (human) (UniProt P54753); conditions: compound 10.0 µM
PIM3 (human) = PIM3 (human) (UniProt Q86V86)
PIM1 (human) = PIM1 (human) (UniProt P11309)
DYRK1A (human) = DYRK1A (human) (UniProt Q13627)

Chain of AKT1 (human), P31749 [S473D] (P31749 whole entry S473D, looked up): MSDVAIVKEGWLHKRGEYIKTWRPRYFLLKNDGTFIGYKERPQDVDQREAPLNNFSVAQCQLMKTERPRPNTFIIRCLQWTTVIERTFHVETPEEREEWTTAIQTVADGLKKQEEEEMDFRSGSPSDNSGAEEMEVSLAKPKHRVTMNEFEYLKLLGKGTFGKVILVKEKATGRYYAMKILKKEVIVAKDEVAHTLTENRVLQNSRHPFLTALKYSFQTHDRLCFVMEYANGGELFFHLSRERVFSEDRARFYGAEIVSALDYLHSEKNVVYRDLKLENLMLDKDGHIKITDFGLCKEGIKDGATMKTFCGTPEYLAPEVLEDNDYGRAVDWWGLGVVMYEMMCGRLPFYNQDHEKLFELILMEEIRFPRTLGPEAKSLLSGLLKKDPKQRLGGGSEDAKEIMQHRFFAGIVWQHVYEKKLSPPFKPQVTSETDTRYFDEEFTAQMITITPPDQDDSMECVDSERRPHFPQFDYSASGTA
Chain of DYRK3 (human) (O43781 whole entry, looked up): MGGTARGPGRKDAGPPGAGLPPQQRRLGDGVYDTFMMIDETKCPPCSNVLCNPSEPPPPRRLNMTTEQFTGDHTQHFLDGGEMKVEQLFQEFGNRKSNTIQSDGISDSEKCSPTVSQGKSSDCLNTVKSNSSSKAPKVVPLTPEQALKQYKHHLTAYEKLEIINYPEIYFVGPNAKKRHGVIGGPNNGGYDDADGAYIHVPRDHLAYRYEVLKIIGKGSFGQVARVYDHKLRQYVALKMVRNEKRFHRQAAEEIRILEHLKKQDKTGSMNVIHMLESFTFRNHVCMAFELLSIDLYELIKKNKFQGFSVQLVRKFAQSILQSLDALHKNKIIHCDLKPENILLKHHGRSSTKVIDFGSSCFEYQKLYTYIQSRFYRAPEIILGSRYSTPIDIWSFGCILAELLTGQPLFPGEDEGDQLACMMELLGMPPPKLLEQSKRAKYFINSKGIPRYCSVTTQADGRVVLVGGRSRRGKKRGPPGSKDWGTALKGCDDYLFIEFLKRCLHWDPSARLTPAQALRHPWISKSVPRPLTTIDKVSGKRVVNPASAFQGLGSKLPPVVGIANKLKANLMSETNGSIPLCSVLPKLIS
Chain of CLK2 (human) (P49760 whole entry, looked up): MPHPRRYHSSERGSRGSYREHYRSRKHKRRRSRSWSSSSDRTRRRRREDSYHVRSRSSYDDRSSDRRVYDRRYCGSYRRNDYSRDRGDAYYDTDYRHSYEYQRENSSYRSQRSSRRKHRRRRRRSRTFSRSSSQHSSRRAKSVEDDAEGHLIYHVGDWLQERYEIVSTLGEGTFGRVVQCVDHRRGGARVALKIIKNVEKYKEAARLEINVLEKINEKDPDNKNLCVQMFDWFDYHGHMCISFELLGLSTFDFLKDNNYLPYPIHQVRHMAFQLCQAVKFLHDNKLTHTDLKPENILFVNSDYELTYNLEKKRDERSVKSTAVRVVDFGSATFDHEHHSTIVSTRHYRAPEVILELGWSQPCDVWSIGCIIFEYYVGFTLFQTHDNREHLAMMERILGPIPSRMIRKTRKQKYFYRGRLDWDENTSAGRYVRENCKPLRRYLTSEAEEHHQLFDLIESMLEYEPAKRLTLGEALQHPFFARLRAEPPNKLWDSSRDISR
Chain of PLK1 (human) (P53350 whole entry, looked up): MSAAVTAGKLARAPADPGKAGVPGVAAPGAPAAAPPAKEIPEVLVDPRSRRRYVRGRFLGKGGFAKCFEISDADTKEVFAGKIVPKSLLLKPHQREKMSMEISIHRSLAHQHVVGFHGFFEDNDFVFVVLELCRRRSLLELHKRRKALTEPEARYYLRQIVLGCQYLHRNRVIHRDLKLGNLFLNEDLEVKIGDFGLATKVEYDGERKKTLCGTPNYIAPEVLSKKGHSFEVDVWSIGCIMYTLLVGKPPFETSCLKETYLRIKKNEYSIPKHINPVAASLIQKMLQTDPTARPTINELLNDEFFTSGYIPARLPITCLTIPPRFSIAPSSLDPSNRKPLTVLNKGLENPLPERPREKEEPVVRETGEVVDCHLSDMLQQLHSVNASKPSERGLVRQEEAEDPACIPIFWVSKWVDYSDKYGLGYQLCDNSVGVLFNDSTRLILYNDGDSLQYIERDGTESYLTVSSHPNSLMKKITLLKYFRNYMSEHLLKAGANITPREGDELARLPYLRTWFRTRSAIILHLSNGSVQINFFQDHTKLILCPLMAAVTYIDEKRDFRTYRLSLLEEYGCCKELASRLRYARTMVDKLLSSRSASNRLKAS
Chain of MAP2K6 (human) (P52564 whole entry, looked up): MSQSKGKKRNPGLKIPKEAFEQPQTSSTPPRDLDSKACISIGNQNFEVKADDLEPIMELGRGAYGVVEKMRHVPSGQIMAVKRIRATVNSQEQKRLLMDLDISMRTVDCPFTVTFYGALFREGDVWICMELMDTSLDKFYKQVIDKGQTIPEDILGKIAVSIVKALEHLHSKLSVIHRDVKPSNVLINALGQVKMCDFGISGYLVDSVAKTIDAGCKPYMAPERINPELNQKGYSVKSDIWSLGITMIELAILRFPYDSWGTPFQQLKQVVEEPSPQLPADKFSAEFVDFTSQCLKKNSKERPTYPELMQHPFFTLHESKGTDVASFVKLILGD
Chain of MAPKAPK5 (human) (Q8IW41 whole entry, looked up): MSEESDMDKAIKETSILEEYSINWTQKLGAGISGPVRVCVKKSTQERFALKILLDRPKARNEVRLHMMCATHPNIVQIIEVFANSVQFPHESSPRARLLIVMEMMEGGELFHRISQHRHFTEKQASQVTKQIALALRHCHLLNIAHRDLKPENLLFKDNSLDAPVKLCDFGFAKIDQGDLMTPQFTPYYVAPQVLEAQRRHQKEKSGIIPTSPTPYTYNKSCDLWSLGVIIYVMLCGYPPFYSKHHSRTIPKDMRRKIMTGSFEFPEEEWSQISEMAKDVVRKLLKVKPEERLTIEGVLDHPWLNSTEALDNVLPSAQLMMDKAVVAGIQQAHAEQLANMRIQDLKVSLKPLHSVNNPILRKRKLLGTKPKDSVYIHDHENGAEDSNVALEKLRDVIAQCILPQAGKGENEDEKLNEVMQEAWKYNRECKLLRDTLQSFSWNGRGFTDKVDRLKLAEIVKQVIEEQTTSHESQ
Chain of BRSK2 (human) (Q8IWQ3 whole entry, looked up): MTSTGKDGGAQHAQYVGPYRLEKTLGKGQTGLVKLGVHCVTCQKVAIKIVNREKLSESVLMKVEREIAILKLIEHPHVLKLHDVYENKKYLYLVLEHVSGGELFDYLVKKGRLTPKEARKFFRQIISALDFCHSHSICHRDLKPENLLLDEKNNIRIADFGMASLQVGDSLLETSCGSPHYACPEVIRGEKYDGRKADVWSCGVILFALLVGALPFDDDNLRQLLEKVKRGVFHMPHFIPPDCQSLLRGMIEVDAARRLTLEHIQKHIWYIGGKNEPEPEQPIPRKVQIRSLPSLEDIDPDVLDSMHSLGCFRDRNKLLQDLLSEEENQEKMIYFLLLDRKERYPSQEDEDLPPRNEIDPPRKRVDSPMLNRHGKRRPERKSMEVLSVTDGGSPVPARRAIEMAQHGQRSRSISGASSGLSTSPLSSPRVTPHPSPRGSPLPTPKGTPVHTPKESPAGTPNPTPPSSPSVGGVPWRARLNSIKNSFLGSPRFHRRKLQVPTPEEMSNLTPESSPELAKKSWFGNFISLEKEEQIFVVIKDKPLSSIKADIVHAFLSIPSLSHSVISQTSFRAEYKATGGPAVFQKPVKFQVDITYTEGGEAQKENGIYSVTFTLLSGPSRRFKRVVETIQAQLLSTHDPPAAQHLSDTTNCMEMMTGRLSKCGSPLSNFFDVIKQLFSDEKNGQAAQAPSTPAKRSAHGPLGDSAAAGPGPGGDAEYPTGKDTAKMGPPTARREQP
Chain of PAK4 (human) (O96013 whole entry, looked up): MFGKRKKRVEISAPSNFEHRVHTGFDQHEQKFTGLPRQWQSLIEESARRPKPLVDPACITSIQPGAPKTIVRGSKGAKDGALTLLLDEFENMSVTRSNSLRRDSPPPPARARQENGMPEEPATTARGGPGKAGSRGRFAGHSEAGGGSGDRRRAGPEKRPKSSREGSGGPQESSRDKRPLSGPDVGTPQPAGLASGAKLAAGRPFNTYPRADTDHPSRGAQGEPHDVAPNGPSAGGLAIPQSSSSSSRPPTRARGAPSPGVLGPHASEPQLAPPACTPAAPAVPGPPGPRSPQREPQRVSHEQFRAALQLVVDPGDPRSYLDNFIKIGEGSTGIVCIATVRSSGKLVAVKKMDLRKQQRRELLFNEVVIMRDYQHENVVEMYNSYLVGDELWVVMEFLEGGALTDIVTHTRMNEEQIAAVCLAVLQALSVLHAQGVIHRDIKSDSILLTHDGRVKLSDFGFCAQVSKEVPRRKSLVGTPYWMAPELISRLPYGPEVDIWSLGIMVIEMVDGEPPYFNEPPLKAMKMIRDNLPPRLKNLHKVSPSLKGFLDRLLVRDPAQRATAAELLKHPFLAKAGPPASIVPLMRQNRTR
Chain of MAPKAPK3 (human) (Q16644 whole entry, looked up): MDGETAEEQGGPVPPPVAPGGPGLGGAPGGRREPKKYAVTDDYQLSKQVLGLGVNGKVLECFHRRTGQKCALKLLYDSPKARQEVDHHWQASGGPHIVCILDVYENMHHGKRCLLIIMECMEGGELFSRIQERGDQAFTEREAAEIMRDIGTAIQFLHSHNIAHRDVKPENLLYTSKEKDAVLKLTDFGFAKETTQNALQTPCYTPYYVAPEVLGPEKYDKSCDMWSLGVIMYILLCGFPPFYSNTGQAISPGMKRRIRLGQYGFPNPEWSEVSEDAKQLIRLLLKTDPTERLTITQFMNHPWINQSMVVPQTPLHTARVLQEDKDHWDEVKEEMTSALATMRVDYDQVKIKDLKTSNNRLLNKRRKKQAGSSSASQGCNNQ
Chain of PIM1 (human) (P11309 whole entry, looked up): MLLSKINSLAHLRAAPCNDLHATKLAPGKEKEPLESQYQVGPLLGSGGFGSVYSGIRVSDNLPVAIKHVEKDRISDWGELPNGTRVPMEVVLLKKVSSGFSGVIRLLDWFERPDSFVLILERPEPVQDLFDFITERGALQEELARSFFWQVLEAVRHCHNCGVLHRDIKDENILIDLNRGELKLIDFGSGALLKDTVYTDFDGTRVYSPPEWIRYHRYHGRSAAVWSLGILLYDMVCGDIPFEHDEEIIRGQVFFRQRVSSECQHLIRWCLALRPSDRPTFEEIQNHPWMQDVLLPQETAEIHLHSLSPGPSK

For Nc1cccc2c1CN(C1CCC(=O)NC1=O)C2=O (stereo unspecified), the residual activity (MAPK3 (human); compound 1.0 µM) was 90%, the residual activity (MAPK3 (human); compound 10.0 µM) was 94% and the residual activity (MAP3K7 TAB1 (human); compound 1.0 µM) was 99%. It also gave a residual activity (MAP3K7 TAB1 (human); compound 10.0 µM) of 104%, a residual activity (NTRK1 (human)) of 141% and a residual activity [1] of 91%. The residual activity (MAPKAPK3 (human); compound 1.0 µM) was 94%, the residual activity (MAPKAPK3 (human); compound 10.0 µM) was 86% and the residual activity (RPS6KA3 KD1 KD2 (human); compound 1.0 µM) was 93%. It also gave a residual activity (RPS6KA3 KD1 KD2 (human); compound 10.0 µM) of 101%, a residual activity (STK3 (human); compound 1.0 µM) of 102% and a residual activity (STK3 (human); compound 10.0 µM) of 101%. It also gave a residual activity (PLK1 (human); compound 1.0 µM) of 104%, a residual activity (PLK1 (human); compound 10.0 µM) of 96% and a residual activity (MAPK8 (human); compound 1.0 µM) of 99%. The residual activity (MAPK8 (human); compound 10.0 µM) was 106%, the residual activity (MKNK2 (human); compound 1.0 µM) was 80% and the residual activity (MKNK2 (human); compound 10.0 µM) was 89%. It also gave a residual activity (ROCK2 (rat); compound 1.0 µM) of 90%, a residual activity (ROCK2 (rat); compound 10.0 µM) of 88% and a residual activity (BRSK2 (human); compound 1.0 µM) of 98%. The residual activity (BRSK2 (human); compound 10.0 µM) was 105%, the residual activity (DYRK3 (human); compound 1.0 µM) was 104% and the residual activity (DYRK3 (human); compound 10.0 µM) was 99%. It also gave a residual activity (PAK4 (human); compound 1.0 µM) of 102%, a residual activity (PAK4 (human); compound 10.0 µM) of 107% and a residual activity (IKBKB (human); compound 1.0 µM) of 100%. For the same compound, the residual activity (IKBKB (human); compound 10.0 µM) was 106%, the residual activity (MAPK11 (human); compound 1.0 µM) was 96% and the residual activity (MAPK11 (human); compound 10.0 µM) was 106%. For the same compound, the residual activity (MAPK14 (human); compound 1.0 µM) was 105%, the residual activity (MAPK14 (human); compound 10.0 µM) was 103% and the residual activity ([2]; compound 1.0 µM) was 94%. The residual activity ([2]; compound 10.0 µM) was 93%, the residual activity (TBK1 (human); compound 1.0 µM) was 95% and the residual activity (TBK1 (human); compound 10.0 µM) was 102%. The residual activity (MAPK12 (human); compound 1.0 µM) was 109%, the residual activity (MAPK12 (human); compound 10.0 µM) was 108% and the residual activity (RPS6KA1 KD1 KD2 (human); compound 1.0 µM) was 98%. For the same compound, the residual activity (RPS6KA1 KD1 KD2 (human); compound 10.0 µM) was 97%, the residual activity ([3]; compound 1.0 µM) was 88% and the residual activity ([3]; compound 10.0 µM) was 91%. The residual activity (IKBKE (human); compound 1.0 µM) was 119%, the residual activity (IKBKE (human); compound 10.0 µM) was 99% and the residual activity (MAPKAPK5 (human); compound 1.0 µM) was 86%. It also gave a residual activity (MAPKAPK5 (human); compound 10.0 µM) of 87%, a residual activity (IRAK4 (human); compound 1.0 µM) of 107% and a residual activity (IRAK4 (human); compound 10.0 µM) of 110%. It also gave a residual activity (CSNK2A1 (human); compound 1.0 µM) of 106%, a residual activity (CSNK2A1 (human); compound 10.0 µM) of 93% and a residual activity (CLK2 (human); compound 1.0 µM) of 104%. The residual activity (CLK2 (human); compound 10.0 µM) was 98%, the residual activity (DAPK1 (human); compound 1.0 µM) was 95% and the residual activity (DAPK1 (human); compound 10.0 µM) was 104%. For the same compound, the residual activity (MAP2K6 (human); compound 1.0 µM) was 93%, the residual activity (MAP2K6 (human); compound 10.0 µM) was 100% and the residual activity (MAP3K11 (human); compound 1.0 µM) was 92%. The residual activity (MAP3K11 (human); compound 10.0 µM) was 98%, the residual activity (PIM2 (human)) was 98% and the residual activity (EPHB3 (human)) was 102%. The residual activity (PIM3 (human); compound 1.0 µM) was 101%, the residual activity (PIM3 (human); compound 10.0 µM) was 103% and the residual activity (PIM1 (human); compound 1.0 µM) was 93%. It also gave a residual activity (PIM1 (human); compound 10.0 µM) of 87%, a residual activity (DYRK1A (human); compound 1.0 µM) of 107% and a residual activity (DYRK1A (human); compound 10.0 µM) of 99%.
